# PubChem BioAssay (NCI)
# Where “and” joins values, the source holds several entries; their conditions need not be identical. Equal values may be shown once.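 The compound was tested at five concentrations on cells cultured in 96-well plates, with a 48-hour exposure period. Abbreviation: GI50, concentration required for 50% inhibition of growth. TGI: total growth inhibition.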
# Tests used:
# Assay in all cases: NCI anticancer screen, dose series, 48 h
# [1] = tested on: SK-MEL-2 melanoma
# [2] = tested on: ACHN renal
# [3] = tested on: NCI-H460 lung
# [4] = tested on: SK-OV-3 ovarian
# [5] = tested on: RXF 393 renal
# [6] = tested on: LOX IMVI melanoma
# [7] = tested on: TK-10 renal
# [8] = tested on: OVCAR-4 ovarian
# [9] = tested on: HOP-92 NSCLC
# [10] = tested on: NCI-H23 lung
SMILES,GI50 [1],TGI [1],GI50 [2],TGI [2],GI50 [3],TGI [3],GI50 [4],TGI [4],GI50 [5],TGI [5],GI50 [6],TGI [6],GI50 [7],TGI [7],GI50 [8],TGI [8],GI50 [9],TGI [9],GI50 [10],TGI [10]
Nc1cccc2c1C(=O)N(C1CCC(=O)NC1=O)C2=O (centres undefined),> 100 µM,> 100 µM,> 100 µM,> 100 µM,> 100 µM,> 100 µM,> 100 µM,> 100 µM,> 100 µM,> 100 µM,> 100 µM,> 100 µM,> 100 µM,> 100 µM,> 100 µM,> 100 µM,> 100 µM,> 100 µM,> 100 µM,> 100 µM
COc1ccc(/C(=C/c2cc(OC)c(OC)c(OC)c2)[N+](=O)[O-])cc1,2.04 µM,4.92 µM,1.54 µM,2.88 µM,2.24 µM,5.23 µM,4.96 µM,17 µM,1.73 µM,3.32 µM,1.62 µM,3.07 µM,1.88 µM,3.59 µM,1.63 µM,3.29 µM,1.44 µM,3.09 µM,2.02 µM,4.64 µM
COc1cc2c3c(n(C)c(=O)c2cc1OC)-c1cc2c(cc1/C3=C\CCCCN)OCO2,5.71 µM,24.1 µM,9.66 µM,26.3 µM,5.02 µM,> 100 µM,17.1 µM,46.7 µM,36 µM,57.1 µM,12.9 µM,41.1 µM,3.95 µM,17.6 µM,17.2 µM,57.3 µM,43.5 µM,> 100 µM,3.84 µM,15.3 µM
CC1(C)CC(=O)C2=C(C1)NC(SSC1=C(C#N)C(c3ccccc3)C3=C(CC(C)(C)CC3=O)N1)=C(C#N)C2c1ccccc1 (centres undefined),26.5 µg/mL,49.8 µg/mL,26.1 µg/mL,46.8 µg/mL,27.7 µg/mL,50.7 µg/mL,22.9 µg/mL,59 µg/mL,25.7 µg/mL,47 µg/mL,27.2 µg/mL,49.3 µg/mL,26.9 µg/mL,48.1 µg/mL,23.6 µg/mL,44.8 µg/mL,29 µg/mL,51 µg/mL,27.7 µg/mL,50.9 µg/mL
O=C1C2CC(Cl)C(SSC3CC4C(=O)N(SC(Cl)(Cl)C(Cl)Cl)C(=O)C4CC3Cl)CC2C(=O)N1SC(Cl)(Cl)C(Cl)Cl (centres undefined),,3.65 µM,,6.66 µM,,13.4 µM,,8.53 µM,,3.17 µM,,3.03 µM,,7.07 µM,,4.31 µM,,3 µM,,5.65 µM
Cc1ccc(S(=O)(=O)NC(CCC(=O)Nc2ccc(Cl)cc2)C(=O)Nc2ccc(Cl)cc2)cc1 (centres undefined),0.57 µM,6.64 µM,0.248 µM,6.57 µM,0.204 µM,7.33 µM,0.869 µM,4.36 µM,1.89 µM,7.31 µM,0.258 µM,5.63 µM,2.95 µM,10 µM,0.775 µM,3.46 µM,0.805 µM,2.76 µM,1.49 µM,9.21 µM
COc1cccc(NC(=O)c2sc3nc4c(cc3c2N)CCCC4)c1,0.69 µM,18.6 µM,0.953 µM,> 100 µM,0.474 µM,> 100 µM,0.473 µM,29.4 µM,0.365 µM,3.34 µM,0.729 µM,> 100 µM,2.97 µM,34 µM,0.998 µM,39.9 µM,0.598 µM,24.7 µM,0.813 µM,> 100 µM
COc1cc(CCc2cc(NC(=O)c3ccc(N4C[C@@H](C)N[C@@H](C)C4)cc3)n[nH]2)cc(OC)c1,4.17 µM and 4.95 µM,> 10 µM and 18.2 µM,9.45 µM and 4.41 µM,> 10 µM and 15.3 µM,6.39 µM and 4.16 µM,> 10 µM and 14.8 µM,9.23 µM and 7.04 µM,> 10 µM and 19.3 µM,,7.97 µM and 9.67 µM,2.93 µM and 2.66 µM,> 10 µM and 10.3 µM,> 10 µM and 10.4 µM,> 10 µM and 23.6 µM,> 10 µM and 3.73 µM,> 10 µM and 18.5 µM,1.95 µM and 1.96 µM,> 10 µM and 12.8 µM,> 10 µM and 3.98 µM,> 10 µM and 17.3 µM
CC1=C(C(=O)Nc2ccc([N+](=O)[O-])cc2)C(c2ccco2)C(C(=O)Nc2ccc([N+](=O)[O-])cc2)=C(C)N1,,28 µM,,53.4 µM,,> 100 µM,,62.9 µM,,60.3 µM,,> 100 µM,,94.3 µM,,46.7 µM,,56.8 µM,,65.9 µM
O=C(O)CN(c1ccc(Cl)cc1)S(=O)(=O)c1ccccc1,,> 100 µM,,> 100 µM,,> 100 µM,,> 100 µM,,> 100 µM,,> 100 µM,,> 100 µM,,> 100 µM,,> 100 µM,,> 100 µM
COC1C=C(Nc2cccc(Cl)c2)C(=O)C1 (centres undefined),,> 100 µM,,> 100 µM,,> 100 µM,,> 100 µM,,92.9 µM,,> 100 µM,,> 100 µM,,> 100 µM,,> 100 µM,,> 100 µM
O=[N+]([O-])c1ccc(Sc2ncccn2)c([N+](=O)[O-])c1,7.15 µM,21.5 µM,3.41 µM,11.1 µM,6.78 µM,24.1 µM,12.5 µM,25.2 µM,0.0489 µM,3.23 µM,4.3 µM,15 µM,2.57 µM,5.77 µM,2.96 µM,13.5 µM,1.15 µM,3.94 µM,5.28 µM,19.1 µM
COc1ccc(-c2cc(-c3ccc(Nc4nc(Nc5ccc(Cl)cc5)nc(Nc5ccc(Cl)cc5)n4)cc3)nc(N)c2C#N)cc1,1.66 µM,3.2 µM,0.803 µM,2.18 µM,4.2 µM,> 54.2 µM,8.71 µM,> 28.1 µM,0.491 µM,1.92 µM,1.4 µM,2.73 µM,2.08 µM,3.77 µM,2.51 µM,> 100 µM,1.31 µM,3.14 µM,3.52 µM,> 87.7 µM
